Data: US8278083B2 (priority 2004, dated 2012)
Read-outs that look alike come from different tables or passages of the source.

Columns and labels:
SIV Mne = format: cell-based
HIV-1(MN) = format: cell-based; conditions: INA-treated HIV-1(MN); for Avg. Capsid Protein conc. Day 7 / Avg. Capsid Protein conc. Day 14 / Avg. Capsid Protein conc. Day 21: AA2 clone 1 cells; for Culture Result Neg / Culture Result Pos: of quadruplicate cultures
SIV = format: cell-based; conditions: INA-treated SIV; FIG. 5
HIV [1] = format: cell-based; conditions: cells exposed to INA-treated HIV; FIG. 6
HIV [2] = format: binding; conditions: compared with non-treated virus; p24 ELISA; FIG. 7
tumor cells = format: cell-based
EBOV-GFP = format: cell-based, Zaire Ebola virus
Zaire EBOV = format: cell-based, Zaire Ebola virus
[3] = test system: influenza virus strain H3N2 (X-31); format: cell-based
neuraminidase = format: biochemical, influenza virus H3N2
influenza virus = format: cell-based
influenza HA = format: cell-based, influenza virus; conditions: pH 5.0
HeLa cell membrane = format: cell-based; conditions: HeLa cells, INA 20 or 100 μM + UV; FIG. 17

[N-]=[N+]=Nc1cccc2c(I)cccc12 [INA, 1,5-iodonaphthyl azide]
infectivity blocked (SIV Mne; 200 μM INA, SIV (P-28) and HIV (P-24) expression): 100%
production of the viral protein p28 (SIV Mne; 200 μM INA, up to 11 days after INA treatment, FIG. 4): no detectable production
1/TCID50/ml (SIV Mne; INA-treated SIV Mne, Reed and Muench, day 21): 0
Culture Result Pos (SIV Mne; INA-treated SIV, 1/dil 10^1, number of cultures productively infected, day 21): 0
Culture Result Neg (SIV Mne; INA-treated SIV, 1/dil 10^1, number of cultures uninfected, day 21): 0
viral infectivity of SIV (SIV Mne; as little as 50 μM INA, FIG. 4): reduced to essentially zero
Avg. Capsid Protein conc. Day 7 (HIV-1(MN); 1/dil 10^1): 9,201 pg/ml
Avg. Capsid Protein conc. Day 14 (HIV-1(MN); 1/dil 10^1): 0 pg/mL
Avg. Capsid Protein conc. Day 21 (HIV-1(MN); 1/dil 10^1): 0 pg/mL
Culture Result Neg (HIV-1(MN); 1/dil 10^1, day 21): 4
Culture Result Pos (HIV-1(MN); 1/dil 10^1, day 21): 0
Avg. Capsid Protein conc. Day 7 (HIV-1(MN); 1/dil 10^2): 0 pg/mL
Avg. Capsid Protein conc. Day 14 (HIV-1(MN); 1/dil 10^2): 0 pg/mL
Avg. Capsid Protein conc. Day 21 (HIV-1(MN); 1/dil 10^2): 0 pg/mL
Culture Result Neg (HIV-1(MN); 1/dil 10^2, day 21): 4
Culture Result Pos (HIV-1(MN); 1/dil 10^2, day 21): 0
Avg. Capsid Protein conc. Day 7 (HIV-1(MN); 1/dil 10^3): 0 pg/mL
Avg. Capsid Protein conc. Day 14 (HIV-1(MN); 1/dil 10^3): 0 pg/mL
Avg. Capsid Protein conc. Day 21 (HIV-1(MN); 1/dil 10^3): 0 pg/mL
Culture Result Neg (HIV-1(MN); 1/dil 10^3, day 21): 4
Culture Result Pos (HIV-1(MN); 1/dil 10^3, day 21): 0
Avg. Capsid Protein conc. Day 7 (HIV-1(MN); 1/dil 10^4): 0 pg/mL
Avg. Capsid Protein conc. Day 14 (HIV-1(MN); 1/dil 10^4): 0 pg/mL
Avg. Capsid Protein conc. Day 21 (HIV-1(MN); 1/dil 10^4): 0 pg/mL
Culture Result Neg (HIV-1(MN); 1/dil 10^4, day 21): 4
Culture Result Pos (HIV-1(MN); 1/dil 10^4, day 21): 0
Avg. Capsid Protein conc. Day 7 (HIV-1(MN); 1/dil 10^5): 0 pg/mL
Avg. Capsid Protein conc. Day 14 (HIV-1(MN); 1/dil 10^5): 0 pg/mL
Avg. Capsid Protein conc. Day 21 (HIV-1(MN); 1/dil 10^5): 0 pg/mL
Culture Result Neg (HIV-1(MN); 1/dil 10^5, day 21): 4
Culture Result Pos (HIV-1(MN); 1/dil 10^5, day 21): 0
Avg. Capsid Protein conc. Day 7 (HIV-1(MN); 1/dil 10^6): 0 pg/mL
Avg. Capsid Protein conc. Day 14 (HIV-1(MN); 1/dil 10^6): 0 pg/mL
Avg. Capsid Protein conc. Day 21 (HIV-1(MN); 1/dil 10^6): 0 pg/mL
Culture Result Neg (HIV-1(MN); 1/dil 10^6, day 21): 4
Culture Result Pos (HIV-1(MN); 1/dil 10^6, day 21): 0
1/TCID50/ml (HIV-1(MN); Reed and Muench, day 21): 0
fusion of SIV with the target cell at the plasma membrane level (SIV): blocked fusion of SIV with the target cell
luciferase expression in JC53BL cells (HIV [1]): substantially no luciferase expression is detected
binding of INA-treated HIV to neutralizing antibodies 2G12, B12 and 4E10 (HIV [2]): interacts substantially the same as the non-treated virus
ability of tumor cells to divide and form colonies (tumor cells): blocked their ability to divide and form colonies
concentration sufficient to inactivate EBOV completely (EBOV-GFP): 100 to 200 µM
infectivity of EBOV-GFP (EBOV-GFP; 24-96 h): complete loss of infectivity
virus growth (genome copies in culture supernatant) (Zaire EBOV): did not show any growth
infectivity of the influenza virus [3]: reduced the infectivity of the influenza virus to zero
catalytic activity of the viral envelope enzyme neuraminidase (neuraminidase): not affected
pH dependent mixing of lipids from the viral envelope with lipids of the target cell (R-18 dequenching) (influenza virus): not affected
redistribution of viral envelope proteins into the cell membrane (125INA incorporation into HA) (influenza HA): almost no detectable signal
mobile fraction of the lipid (DiO) (HeLa cell membrane): not affected
protein mobile fraction (CD4-GFP) (HeLa cell membrane): reduced to background level
